{"source": "ChEMBL document CHEMBL1201862", "about": "“PubChem BioAssay data set” (2004)", "key": {"Cytochrome P450 2C9": {"target": "Cytochrome P450 2C9 (Homo sapiens, UniProt P11712)", "sequence (P11712 whole entry)": "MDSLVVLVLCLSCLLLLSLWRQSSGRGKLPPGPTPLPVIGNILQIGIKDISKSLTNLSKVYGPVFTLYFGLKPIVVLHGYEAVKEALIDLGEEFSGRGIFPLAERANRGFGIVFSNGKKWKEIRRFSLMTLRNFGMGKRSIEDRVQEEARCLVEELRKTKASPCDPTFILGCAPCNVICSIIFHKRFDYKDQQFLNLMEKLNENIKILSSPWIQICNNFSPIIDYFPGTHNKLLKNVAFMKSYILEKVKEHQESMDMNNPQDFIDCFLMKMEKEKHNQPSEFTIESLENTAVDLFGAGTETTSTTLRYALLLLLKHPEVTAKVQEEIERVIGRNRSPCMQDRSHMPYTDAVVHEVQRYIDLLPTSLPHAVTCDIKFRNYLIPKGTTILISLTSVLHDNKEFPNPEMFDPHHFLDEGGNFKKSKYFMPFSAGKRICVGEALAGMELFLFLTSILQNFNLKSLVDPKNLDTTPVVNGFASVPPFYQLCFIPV"}, "[1]": {"target": "Heat shock protein HSP 90-alpha (Homo sapiens, UniProt P07900)", "type": "functional, organism-based"}, "[2]": {"tested_on": "Streptococcus sp. 'group A'", "assay": "growth inhibition of control SK(-) GAS strain, dose response, counter-screen for streptokinase expression inhibitor project, luminescence, kanamycin, BacTiterGlo, confirmation (AID 1900)", "type": "functional, organism-based"}, "[3]": {"assay": "cytotoxicity toward NIH3T3 fibroblasts, dose response, counter-screen, cell-based, ATP luminescence, mouse fibroblasts (AID 2010);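 also: cells exposed to compound for about 90 hours before reading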", "type": "functional"}, "[4]": {"assay": "inhibitors of intracellular T. cruzi replication, confirmation, NIH3T3 host cells, beta-gal luminescence (AID 2044);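 also: luminescent beta-galactosidase reporter signal from transgenic T. cruzi replicating inside host cells; inhibitors lower the luminescence signal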", "type": "functional, cell-based"}, "[5]": {"assay": "Luminescence Cell-Based Dose Retest to Confirm Inhibitors of Cancer Stem Cells. [Related pubchem assays (depositor defined):AID2717, AID2721]", "type": "functional", "settings": "Homo sapiens"}, "Streptococcus": {"tested_on": "Streptococcus", "assay": "Group A Streptococcus viability loss, dose response, counter-screen for streptokinase expression inhibitor project, luminescence, BacTiterGlo (AID 1915);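 also: potency for reduction of bacterial viability or growth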", "type": "functional, organism-based"}, "H4": {"tested_on": "H4", "assay": "Luminescence Cell-Based Dose Response HTS to Identify Activators of 5'UTR Stem-Loop Driven Prion Protein mRNA Translation in H4 Neuroglioblastoma Cells. [Related pubchem assays: 1829 (Project Summary), 1814 (Primary HTS)]", "type": "functional", "settings": "Homo sapiens"}, "Streptokinase A": {"target": "T1, Streptokinase A (Streptococcus pyogenes serotype M1, UniProt P10520)", "T1 sequence (P10520 whole entry)": "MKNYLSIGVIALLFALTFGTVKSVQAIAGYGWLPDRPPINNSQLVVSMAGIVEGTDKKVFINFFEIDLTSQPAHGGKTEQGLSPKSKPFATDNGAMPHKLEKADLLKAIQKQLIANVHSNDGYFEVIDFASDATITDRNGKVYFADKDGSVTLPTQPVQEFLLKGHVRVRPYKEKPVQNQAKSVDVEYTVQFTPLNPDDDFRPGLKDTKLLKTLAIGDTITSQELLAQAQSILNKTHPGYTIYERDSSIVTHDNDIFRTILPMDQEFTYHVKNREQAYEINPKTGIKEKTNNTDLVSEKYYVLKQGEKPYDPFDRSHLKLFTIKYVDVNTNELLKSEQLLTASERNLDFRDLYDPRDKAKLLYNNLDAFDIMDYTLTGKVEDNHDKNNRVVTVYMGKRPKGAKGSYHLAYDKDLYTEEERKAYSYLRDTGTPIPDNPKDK", "assay": "S. pyogenes streptokinase expression inhibitors, potency, dose response, plasminogen activation absorbance, OD405 (AID 1914);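 also: secreted streptokinase activity via plasminogen activation per viability signal from cell pellet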", "type": "functional, Streptococcus pyogenes M1 GAS"}, "SN12K1": {"tested_on": "SN12K1", "assay": "cells", "type": "functional", "settings": "Homo sapiens"}, "P388/ADR": {"tested_on": "P388/ADR", "assay": "cells", "type": "functional", "settings": "Mus musculus"}, "P388": {"tested_on": "P388", "assay": "cells", "type": "functional", "settings": "Mus musculus"}, "[6]": {"assay": "Luminescence Cell-Based Dose Response HTS to Identify Activators of Luciferase Translation or Activity in H4 […] Cells. [Related pubchem assays: 1829 (Project Summary), 1814 (Primary HTS)]", "type": "functional"}, "[7]": {"assay": "Luminescence Cell-Based Dose Confirmation HTS to Identify Activators of 5'UTR Stem-Loop Driven Alpha-Synuclein mRNA Translation in H4 Neuroglioblastoma Cells. [Related pubchem assays: 1829 (Project Summary), 1814 (Primary HTS)]", "type": "functional"}, "[8]": {"target": "T2, Low molecular weight phosphotyrosine protein phosphatase (Homo sapiens, UniProt P24666)", "T2 sequence (P24666 whole entry)": "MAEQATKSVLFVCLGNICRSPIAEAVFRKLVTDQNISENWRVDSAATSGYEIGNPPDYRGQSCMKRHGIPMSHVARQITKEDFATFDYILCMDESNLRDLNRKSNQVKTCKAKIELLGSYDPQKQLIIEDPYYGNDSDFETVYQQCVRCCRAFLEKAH", "type": "functional", "settings": "read-out: IC50_Mean"}, "[9]": {"assay": "NIH-3T3 fibroblast cytotoxicity, dose response, cytotoxicity control, cell-based, fluorescence, Alamar Blue, secondary assay (AID 2327);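 also: NIH-3T3 mouse fibroblasts cultured with fluconazole at 8 µg/mL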", "type": "functional"}, "[10]": {"assay": "C. albicans growth with fluconazole, confirmation, fluorescence, retest (AID 2467)", "type": "functional, cell-based"}, "Cytochrome P450 2C19": {"target": "Cytochrome P450 2C19 (Homo sapiens, UniProt P33261)", "sequence (P33261 whole entry)": "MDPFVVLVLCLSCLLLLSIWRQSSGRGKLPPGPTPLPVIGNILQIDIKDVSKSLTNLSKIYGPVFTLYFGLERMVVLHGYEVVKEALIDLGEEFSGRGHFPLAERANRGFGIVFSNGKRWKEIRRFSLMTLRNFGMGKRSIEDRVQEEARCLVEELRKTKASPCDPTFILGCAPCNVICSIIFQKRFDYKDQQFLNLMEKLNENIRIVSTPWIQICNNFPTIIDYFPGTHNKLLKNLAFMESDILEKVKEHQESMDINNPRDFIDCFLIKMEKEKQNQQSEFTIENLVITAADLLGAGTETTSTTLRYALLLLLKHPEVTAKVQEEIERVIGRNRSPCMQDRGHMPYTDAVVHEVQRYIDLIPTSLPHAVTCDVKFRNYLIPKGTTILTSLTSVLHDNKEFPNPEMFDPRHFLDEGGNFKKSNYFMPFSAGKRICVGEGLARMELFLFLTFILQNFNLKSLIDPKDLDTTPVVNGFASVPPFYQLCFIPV", "assay": "Cytochrome panel assay with activity outcomes. Panel member name: p450-cyp2c19 Compounds with AC50 equal or less than 10 uM are considered active", "type": "functional", "settings": "read-out: AC50"}, "Vero": {"tested_on": "Vero", "assay": "cells", "type": "functional", "settings": "Chlorocebus sabaeus"}, "Cytochrome P450 2D6": {"target": "Cytochrome P450 2D6 (Homo sapiens, UniProt P10635)", "sequence (P10635 whole entry)": "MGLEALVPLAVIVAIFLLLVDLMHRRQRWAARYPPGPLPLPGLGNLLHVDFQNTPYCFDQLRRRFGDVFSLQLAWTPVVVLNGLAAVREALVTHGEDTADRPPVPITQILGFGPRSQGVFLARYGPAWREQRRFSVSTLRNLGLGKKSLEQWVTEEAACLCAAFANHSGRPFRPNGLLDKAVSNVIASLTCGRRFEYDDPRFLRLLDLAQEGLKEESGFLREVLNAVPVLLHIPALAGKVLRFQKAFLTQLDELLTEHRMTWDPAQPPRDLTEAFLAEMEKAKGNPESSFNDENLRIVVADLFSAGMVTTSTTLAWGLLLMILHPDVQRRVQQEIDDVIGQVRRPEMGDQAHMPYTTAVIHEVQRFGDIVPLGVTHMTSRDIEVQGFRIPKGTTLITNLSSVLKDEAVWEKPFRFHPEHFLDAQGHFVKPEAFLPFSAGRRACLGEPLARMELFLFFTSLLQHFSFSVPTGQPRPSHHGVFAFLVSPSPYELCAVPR"}, "[11]": {"target": "T3, Short transient receptor potential channel 4 (Mus musculus, UniProt Q9QUQ5)", "T3 sequence (Q9QUQ5 whole entry)": "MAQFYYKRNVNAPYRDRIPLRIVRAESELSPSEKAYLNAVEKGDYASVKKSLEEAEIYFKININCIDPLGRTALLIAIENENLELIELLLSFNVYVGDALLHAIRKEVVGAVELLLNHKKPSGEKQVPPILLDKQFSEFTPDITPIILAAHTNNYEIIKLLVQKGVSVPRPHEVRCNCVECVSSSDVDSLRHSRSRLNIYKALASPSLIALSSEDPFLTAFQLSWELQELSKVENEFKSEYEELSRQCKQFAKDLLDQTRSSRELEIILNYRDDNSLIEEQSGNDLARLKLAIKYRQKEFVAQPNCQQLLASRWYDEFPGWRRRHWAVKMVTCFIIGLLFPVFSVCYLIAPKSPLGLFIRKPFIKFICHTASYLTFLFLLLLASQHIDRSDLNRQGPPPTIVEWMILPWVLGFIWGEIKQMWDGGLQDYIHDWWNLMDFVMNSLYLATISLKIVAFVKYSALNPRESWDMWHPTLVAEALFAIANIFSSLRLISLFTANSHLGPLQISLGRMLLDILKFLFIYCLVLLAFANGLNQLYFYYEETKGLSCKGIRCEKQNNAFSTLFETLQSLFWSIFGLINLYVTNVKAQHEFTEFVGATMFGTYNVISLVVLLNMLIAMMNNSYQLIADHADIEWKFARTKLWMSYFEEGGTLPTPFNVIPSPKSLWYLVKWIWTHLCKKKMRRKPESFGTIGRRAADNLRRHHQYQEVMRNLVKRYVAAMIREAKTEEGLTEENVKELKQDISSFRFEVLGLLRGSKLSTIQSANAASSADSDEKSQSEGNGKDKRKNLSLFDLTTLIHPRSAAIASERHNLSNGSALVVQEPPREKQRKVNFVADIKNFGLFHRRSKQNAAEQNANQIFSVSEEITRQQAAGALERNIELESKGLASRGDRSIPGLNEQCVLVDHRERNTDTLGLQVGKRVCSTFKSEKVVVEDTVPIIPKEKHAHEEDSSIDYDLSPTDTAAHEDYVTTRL", "assay": "mouse TRPC4 channel activators, dose response, cell-based, HEK293 TRPC4/mu-opioid, Fluo-4 calcium (AID 434937)", "type": "functional"}}, "note": "Calls of active or inactive are those of the source.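 For IC50 Mean in this document: Dose-response confirmation assay measuring inhibition of LMPTP enzyme activity by fluorescence intensity read-out.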", "data": [{"smiles": "CS(=O)(=O)c1ccc(Cn2c3c(c4cc(F)cc(F)c42)CCC[C@H]3CC(=O)O)cc1", "values": [{"measurement": "AC50", "setting": "Cytochrome P450 2C9", "result": "inconclusive"}]}, {"smiles": "CCCC1COC(Cn2cncn2)(c2ccc(C)cc2)O1", "note": "(stereo not given)", "values": [{"measurement": "AC50", "setting": "[1]", "result": "0.73 µM (active)"}]}, {"smiles": "CC(C)c1ccc(-c2cc(C(=O)N3N=C(C(F)F)CC3(O)C(F)F)c3ccccc3n2)cc1", "note": "(stereo not given)", "values": [{"measurement": "EC50", "setting": "[2]", "result": "3.3 µM (active)"}, {"measurement": "EC50", "setting": "[3]", "result": "> 60 µM (not active)"}, {"measurement": "EC50", "setting": "[4]", "result": "3.4 µM (active)"}, {"measurement": "AC50", "setting": "[1]", "result": "4.06 µM (active)"}, {"measurement": "AC50", "setting": "[5]", "result": "4.37 µM (active)"}, {"measurement": "EC50", "setting": "Streptococcus", "result": "4.31 µM (active)"}, {"measurement": "EC50", "setting": "H4", "result": "10 µM (active)"}, {"measurement": "EC50", "setting": "Streptokinase A", "result": "> 150 µM (not active)"}]}, {"smiles": "CCCCCCCCCCCC1CCCC(C)N1", "note": "(stereo not given)", "values": [{"measurement": "GI50", "setting": "SN12K1", "result": "28.3 µM (inactive)"}, {"measurement": "GI50", "setting": "P388/ADR", "result": "12.4 µM (inactive)"}, {"measurement": "GI50", "setting": "P388", "result": "10.5 µM (inactive)"}]}, {"smiles": "CCn1cc(C(=O)O)c(=O)c2cnc(N3CCN(C(=S)Nc4ccccc4Cl)CC3)nc21", "values": [{"measurement": "EC50", "setting": "[6]", "result": "> 120 µM (not active)"}, {"measurement": "EC50", "setting": "[7]", "result": "> 120 µM (not active)"}, {"measurement": "EC50", "setting": "H4", "result": "> 120 µM (not active)"}, {"measurement": "IC50", "setting": "[8]", "result": "35.9 µM (inactive)"}]}, {"smiles": "c1ccc(-c2ccc3c(c2)c2c4n3CCN=C4CCC2)cc1", "values": [{"measurement": "EC50", "setting": "[9]", "result": "50.1 µM (active)"}, {"measurement": "EC50", "setting": "[10]", "result": "> 38 µM (not active)"}, {"measurement": "AC50", "setting": "Cytochrome P450 2C19", "result": "31.6 µM (inconclusive)"}, {"measurement": "CC50", "setting": "Vero", "result": "23.6 µM (active)"}]}, {"smiles": "Nc1nc(N)c2nc(CNc3ccc(C(=O)N[C@H](CCC(=O)O)C(=O)O)cc3)cnc2n1", "values": [{"measurement": "AC50", "setting": "Cytochrome P450 2C9", "result": "inconclusive"}]}, {"smiles": "COC(=O)CN1CN(c2ccccc2)C2(CCN(Cc3ccc4ccccc4c3)CC2)C1=O", "values": [{"measurement": "AC50", "setting": "Cytochrome P450 2C9", "result": "inconclusive"}, {"measurement": "AC50", "setting": "Cytochrome P450 2D6", "result": "20 µM (inconclusive)"}]}, {"smiles": "O=C1CCCN1CCC1CCN(C2CC(=O)N(c3ccc(Cl)cc3)C2=O)CC1", "note": "(stereo not given)", "values": [{"measurement": "AC50", "setting": "[1]", "result": "7.56 µM (active)"}]}, {"smiles": "CCOC(=O)C1(CCc2ccccc2)CCN(Cc2csc(C(C)=O)c2)CC1", "values": [{"measurement": "EC50", "setting": "[11]", "result": "0.841 µM (active)"}]}, {"smiles": "Cn1c(N2CCN(C(=O)Nc3ccc(F)cc3)CC2)nc2ccccc21", "values": [{"measurement": "EC50", "setting": "[11]", "result": "6.68 µM (active)"}]}, {"smiles": "C[C@@]12CC[C@H]3[C@@H]4CCC(=O)N[C@@]4(C)CC[C@@H]3[C@@]1(C)CC[C@H](OC(=O)Cc1ccc(N(CCCl)CCCl)cc1)C2", "values": [{"measurement": "GI50", "setting": "SN12K1", "result": "16.9 µM (inactive)"}, {"measurement": "GI50", "setting": "P388/ADR", "result": "14.7 µM (inactive)"}, {"measurement": "GI50", "setting": "P388", "result": "10.6 µM (inactive)"}]}]}
